Experiments:
[1] = molecular target: T1, recombinant BRD4 (BD1 + BD2) (Homo sapiens, UniProt O60885); assay: BRD4 TR-FRET activity assay; format: binding; settings: 1 μmol/L; read-out: BRD4 inhibition rate;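 note: signal rises with BET ligand binding to the bromodomains, so inhibitors lower it, 120 min incubation at room temperature, 1% DMSO, wells lacking ligand as negative control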
T1 construct: employing a recombinant BRD4 (BD1 + BD2) and its corresponding ligand
Procedure: The BRD4 activity assay utilized TR-FRET technology, employing a recombinant BRD4 (BD1 + BD2) and its corresponding ligand. The TR-FRET signal generated in the assay is proportional to the ligand’s binding to the bromodomains. All reactions contained a final DMSO concentration of 1%. All binding reactions were conducted at room temperature. Each 20 µL reaction mixture, in assay buffer, comprised bromodomains, the BET Ligand, and the specified inhibitor amount. For the negative control, 5 µL of assay buffer replaced the BET ligand. After a 120-min incubation with the ligand, the TR-FRET signal was captured using a Tecan Infinite M1000 plate reader. IC50 values were determined through nonlinear regression with a normalized dose-response fit in Prism GraphPad software.

inhibition at 1 µM [1] | melting point | Compound
15% | – | Cc1noc(C)c1-c1cc(Cc2n[nH]c(=O)c3ccccc23)cc(C(N)=O)c1 [DDT01]
5% | > 250 °C | CNC(=O)c1cc(Cc2n[nH]c(=O)c3ccccc23)cc(-c2c(C)noc2C)c1 [DDT02]
67% | > 250 °C | Cc1noc(C)c1-c1cc(Cc2n[nH]c(=O)c3ccccc23)cc(C(=O)NC2CCCC2)c1 [DDT03]
56% | 178 to 179 °C | Cc1noc(C)c1-c1cc(Cc2n[nH]c(=O)c3ccccc23)cc(C(=O)NC2CCCCC2)c1 [DDT04]
35% | 192 to 193 °C | Cc1noc(C)c1-c1cc(Cc2n[nH]c(=O)c3ccccc23)cc(C(=O)Nc2ccccc2)c1 [DDT05]
4% | – | Cc1noc(C)c1-c1cc(Cc2n[nH]c(=O)c3ccccc23)cc(C(=O)NCc2ccccc2)c1 [DDT06]
8% | > 250 °C | Cc1noc(C)c1-c1cc(Cc2n[nH]c(=O)c3ccccc23)cc(C(=O)NCc2cccnc2)c1 [DDT07]
11% | – | Cc1noc(C)c1-c1cc(Cc2n[nH]c(=O)c3ccccc23)cc(C(=O)NC2CCOCC2)c1 [DDT08]
4% | – | Cc1noc(C)c1-c1cc(Cc2n[nH]c(=O)c3ccccc23)cc(C(=O)NC2CCS(=O)(=O)CC2)c1 [DDT09]
36% | 199 to 200 °C | Cc1noc(C)c1-c1cc(Cc2n[nH]c(=O)c3ccccc23)cc(C(=O)N[C@H]2CC[C@H](O)CC2)c1 [DDT10]
54% | 214 to 215 °C | Cc1noc(C)c1-c1cc(Cc2n[nH]c(=O)c3ccccc23)cc(C(=O)N[C@H]2CC[C@@H](O)CC2)c1 [DDT11]
38% | 241 to 243 °C | Cc1noc(C)c1-c1cc(Cc2n[nH]c(=O)c3ccccc23)cc(C(=O)N2CCC(=O)C2)c1 [DDT12]
71% | – | Cc1noc(C)c1-c1cc(Cc2n[nH]c(=O)c3ccccc23)cc(C(=O)N2CC[C@@H](O)C2)c1 [DDT13]
59% | – | Cc1noc(C)c1-c1cc(Cc2n[nH]c(=O)c3ccccc23)cc(C(=O)N2CCNCC2)c1 [DDT15]
71% | 241 to 242 °C | Cc1noc(C)c1-c1cc(Cc2n[nH]c(=O)c3ccccc23)cc(C(=O)N2CCOCC2)c1 [DDT16]
16% | 154 to 155 °C | Cc1noc(C)c1-c1cc(Cc2n[nH]c(=O)c3ccccc23)cc(C(=O)N2CCN(C(=O)C3CC3)CC2)c1 [DDT17]
37% | 161 to 162 °C | Cc1noc(C)c1-c1cc(Cc2n[nH]c(=O)c3ccccc23)cc(C(=O)N2CCn3nc(C(F)(F)F)nc3C2)c1 [DDT18]
11% | 157 to 158 °C | Cc1noc(C)c1-c1cc(Cc2n[nH]c(=O)c3ccccc23)cc(C(=O)N2CCC[C@H](O)C2)c1 [DDT19]
4% | – | Cc1noc(C)c1-c1cc(Cc2n[nH]c(=O)c3ccccc23)cc(C(=O)N2CCC[C@@H](O)C2)c1 [DDT20]
19% | 176 to 177 °C | Cc1noc(C)c1-c1cc(Cc2n[nH]c(=O)c3ccccc23)cc(C(=O)N2CCC(O)CC2)c1 [DDT21]
64% | 173 to 174 °C | Cc1noc(C)c1-c1cc(Cc2n[nH]c(=O)c3ccccc23)cc(NC(=O)c2ccccc2)c1 [DDT22]

inhibition at 1 µM [1] | melting point | Compound
60% | 231 to 232 °C | Cc1noc(C)c1-c1cc(Cc2n[nH]c(=O)c3ccccc23)cc(NC(=O)c2cccc(C(F)(F)F)c2)c1 [DDT27]
54% | – | Cc1noc(C)c1-c1cc(Cc2n[nH]c(=O)c3ccccc23)cc(NC(=O)c2ccc(C(F)(F)F)cc2)c1 [DDT28]
65% | > 250 °C | Cc1noc(C)c1-c1cc(Cc2n[nH]c(=O)c3ccccc23)cc(NC(=O)c2cccc([N+](=O)[O-])c2)c1 [DDT29]
74% | – | Cc1noc(C)c1-c1cc(Cc2n[nH]c(=O)c3ccccc23)cc(NC(=O)c2ccc([N+](=O)[O-])cc2)c1 [DDT30]
71% | 236 to 237 °C | Cc1noc(C)c1-c1cc(Cc2n[nH]c(=O)c3ccccc23)cc(NC(=O)c2cccc(N)c2)c1 [DDT31]
54% | 188 to 189 °C | Cc1noc(C)c1-c1cc(Cc2n[nH]c(=O)c3ccccc23)cc(NC(=O)c2ccc(N)cc2)c1 [DDT32]
3% | 230 to 231 °C | Cc1noc(C)c1-c1cc(Cc2n[nH]c(=O)c3ccccc23)cc(NCc2ccccc2)c1 [DDT33]
3% | – | Cc1noc(C)c1-c1cc(Cc2n[nH]c(=O)c3ccccc23)cc(NCc2cccc(F)c2)c1 [DDT34]
3% | – | Cc1noc(C)c1-c1cc(Cc2n[nH]c(=O)c3ccccc23)cc(NCc2ccc(F)cc2)c1 [DDT35]
3% | 229 to 230 °C | Cc1noc(C)c1-c1cc(Cc2n[nH]c(=O)c3ccccc23)cc(NCc2cccc([N+](=O)[O-])c2)c1 [DDT36]
8% | – | Cc1noc(C)c1-c1cc(Cc2n[nH]c(=O)c3ccccc23)cc(NCc2ccc([N+](=O)[O-])cc2)c1 [DDT37]
16% | 200 to 201 °C | Cc1noc(C)c1-c1cc(Cc2n[nH]c(=O)c3ccccc23)cc(NCc2ccc(Cl)cc2)c1 [DDT39]
3% | 235 to 236 °C | Cc1noc(C)c1-c1cc(Cc2n[nH]c(=O)c3ccccc23)cc(NCc2cccc(Br)c2)c1 [DDT40]
17% | 200 to 201 °C | Cc1noc(C)c1-c1cc(Cc2n[nH]c(=O)c3ccccc23)cc(NCc2ccc(Br)cc2)c1 [DDT41]
3% | – | Cc1noc(C)c1-c1cc(Cc2n[nH]c(=O)c3ccccc23)cc(NCc2ccc(Br)cc2F)c1 [DDT42]
4% | > 250 °C | Cc1noc(C)c1-c1cc(Cc2n[nH]c(=O)c3ccccc23)cc(NCc2ccc(F)c(Br)c2)c1 [DDT43]
3% | – | Cc1cccc(CNc2cc(Cc3n[nH]c(=O)c4ccccc34)cc(-c3c(C)noc3C)c2)c1 [DDT44]
7% | 215 to 216 °C | Cc1ccc(CNc2cc(Cc3n[nH]c(=O)c4ccccc34)cc(-c3c(C)noc3C)c2)cc1 [DDT45]
39% | 220 to 221 °C | Cc1noc(C)c1-c1cc(Cc2n[nH]c(=O)c3ccccc23)cc(NCc2ccc(C(F)(F)F)cc2)c1 [DDT46]
69% | 195 to 196 °C | CCS(=O)(=O)Nc1cc(Cc2n[nH]c(=O)c3ccccc23)cc(-c2c(C)noc2C)c1 [DDT50]
4% | 165 to 166 °C | CCCS(=O)(=O)Nc1cc(Cc2n[nH]c(=O)c3ccccc23)cc(-c2c(C)noc2C)c1 [DDT51]

inhibition at 1 µM [1] | melting point | Compound
6% | 147 to 148 °C | CCCCS(=O)(=O)Nc1cc(Cc2n[nH]c(=O)c3ccccc23)cc(-c2c(C)noc2C)c1 [DDT52]
9% | 181 to 182 °C | COCCS(=O)(=O)Nc1cc(Cc2n[nH]c(=O)c3ccccc23)cc(-c2c(C)noc2C)c1 [DDT53]
3% | – | Cc1noc(C)c1-c1cc(Cc2n[nH]c(=O)c3ccccc23)cc(NS(=O)(=O)C(C)C)c1 [DDT54]
32% | 140 to 141 °C | Cc1noc(C)c1-c1cc(Cc2n[nH]c(=O)c3ccccc23)cc(NS(=O)(=O)C2CC2)c1 [DDT55]
24% | – | Cc1noc(C)c1-c1cc(Cc2n[nH]c(=O)c3ccccc23)cc(NS(=O)(=O)C2CCCCC2)c1 [DDT56]
36% | – | Cc1noc(C)c1-c1cc(Cc2n[nH]c(=O)c3ccccc23)cc(NS(=O)(=O)c2ccccc2)c1 [DDT57]
71% | – | Cc1cccc(S(=O)(=O)Nc2cc(Cc3n[nH]c(=O)c4ccccc34)cc(-c3c(C)noc3C)c2)c1 [DDT58]
49% | – | Cc1ccc(S(=O)(=O)Nc2cc(Cc3n[nH]c(=O)c4ccccc34)cc(-c3c(C)noc3C)c2)cc1C [DDT61]
69% | – | Cc1noc(C)c1-c1cc(Cc2n[nH]c(=O)c3ccccc23)cc(NS(=O)(=O)c2ccc(C(C)C)cc2)c1 [DDT64]
8% | – | Cc1ccc(S(=O)(=O)Nc2cc(Cc3n[nH]c(=O)c4ccccc34)cc(-c3c(C)noc3C)c2)cn1 [DDT66]
24% | – | COc1ccccc1S(=O)(=O)Nc1cc(Cc2n[nH]c(=O)c3ccccc23)cc(-c2c(C)noc2C)c1 [DDT67]
67% | – | Cc1noc(C)c1-c1cc(Cc2n[nH]c(=O)c3ccccc23)cc(NS(=O)(=O)c2ccc3c(c2)OCCO3)c1 [DDT71]
38% | – | CC(=O)Nc1ccc(S(=O)(=O)Nc2cc(Cc3n[nH]c(=O)c4ccccc34)cc(-c3c(C)noc3C)c2)cc1 [DDT73]
50% | – | Cc1noc(C)c1-c1cc(Cc2n[nH]c(=O)c3ccccc23)cc(NS(=O)(=O)Cc2ccccc2)c1 [DDT76]
55% | – | Cc1ccc(CS(=O)(=O)Nc2cc(Cc3n[nH]c(=O)c4ccccc34)cc(-c3c(C)noc3C)c2)cc1 [DDT78]
20% | – | Cc1noc(C)c1-c1cc(Cc2n[nH]c(=O)c3ccccc23)cc(NS(=O)(=O)c2cccc(C(F)(F)F)c2)c1 [DDT81]
28% | – | Cc1noc(C)c1-c1cc(Cc2n[nH]c(=O)c3ccccc23)cc(NS(=O)(=O)c2ccc([N+](=O)[O-])cc2)c1 [DDT83]
14% | – | Cc1noc(C)c1-c1cc(Cc2n[nH]c(=O)c3ccccc23)cc(NS(=O)(=O)c2ccccc2F)c1 [DDT84]
5% | – | Cc1noc(C)c1-c1cc(Cc2n[nH]c(=O)c3ccccc23)cc(NS(=O)(=O)c2cccc(F)c2)c1 [DDT85]
4% | – | Cc1noc(C)c1-c1cc(Cc2n[nH]c(=O)c3ccccc23)cc(NS(=O)(=O)c2ccc(Cl)cc2Cl)c1 [DDT90]
26% | – | Cc1noc(C)c1-c1cc(Cc2n[nH]c(=O)c3ccccc23)cc(NS(=O)(=O)c2ccc(Br)cc2)c1 [DDT93]

Compound | inhibition at 1 µM [1] | melting point
Cc1noc(C)c1-c1cc(Cc2n[nH]c(=O)c3ccccc23)cc(NCc2cccc(Cl)c2)c1 [DDT38] | 8% | 235 to 236 °C
